One data set relates to H2AX mRNA. The experiment in a line: H2AX mRNA level by qRT-PCR. The format is cell-based, human. On the procedure:
(§1) HepG2 cells were grown in DMEM supplemented with 10% FCS. HL60 and K562 cells were grown in RPMI-1640 supplemented with 10% FCS. K562 cells (0.5×10^6 cells/ml) were treated with TPA (16 nM, 2 d) or Hemin (100 μM, 4 d) for differentiation into megakaryocytes or erythrocytes, respectively. To induce macrophage or granulocyte differentiation, HL60 cells (0.5×10^6 cells/ml) were treated with TPA (16 nM, 2 d) or DMSO (1.25%, 5 d), respectively. We isolated human polymorphonuclear neutrophils (PMN) from whole blood after removing mononuclear cells and platelets by Ficoll-Hypaque density gradient centrifugation. Erythrocytes were lysed by treatment with ice-cold isotonic lysis buffer (0.155 M NH4Cl, pH 7.4). The remaining PMN cells were washed with Hanks' balanced salt solution and suspended in RPMI medium containing 10% (v/v) FCS. We isolated human macrophages from peripheral blood as described in Song et al. 2003.
(§2) Total RNA was isolated using Trizol (Invitrogen) and reverse transcribed using random hexamers and superscript II reverse transcriptase (Invitrogen). qRT-PCR was performed in triplicate samples using the SYBR Green master mix (Applied Biosystems) and the BioRad iCycler. Primers are provided in Supplemental Table 1. Results were normalized to GAPDH. miRNA quantitative PCR was done in triplicate using the TaqMan MicroRNA Assay from Applied Biosystems as per the manufacturer's instructions and normalized to U6 SnRNA.
(§3) HepG2 cells (2.5×10^5/well) were reverse transfected with 30 nM miRNA […] (cel-miR-67) mimics (Dharmacon) using NeoFx (Ambion) following the manufacturer's instructions. K562 cells were transfected with miRNA or control mimics (100 nM) using Amaxa nucleofection following the manufacturer's protocol. K562 cells were treated with TPA (16 nM, 2 d) and were transfected with 100 nM miR-24 ASO using lipofectamine 2000 (Invitrogen) and 36 h later these cells were exposed to indicated concentrations of bleomycin and cell viability was assessed 2 d later.
For orientation: In qPCR the cycle at which signal appears reflects the starting amount.

For the next data set, the system named is miR-24. Description: miR-24 level by qRT-PCR relative to U6. The format is cell-based, human. As to the method:
as §1, §2, §3

The test system of data set [1] is K562 cells. The experiment in a line: Cell proliferation by thymidine uptake. To be noted: TPA-treated K562 cells, by 12 h. It is filed as cell-based, human.
In data set [2] the test system is K562 cells. The experiment in a line: Cell viability assay after genotoxic drug, K562. The format is cell-based, human. To be noted: for Sensitivity to DNA damage (viability after bleomycin): viability 2 d later. On the procedure:
as §3
(§4) microRNA-transfected K562 or HepG2 cells were seeded (2×10^3 cells/100 μl) into octuplicate microtiter wells, incubated overnight, and then treated with indicated reagents or medium for 48 h. Viability was measured by CyQuant Cell Proliferation Assay Kit as per manufacturer's instructions (Molecular Probes). Results were expressed as OD520 relative to that of untreated cells.

The next data set concerns H2AX. Description: H2AX protein level by immunoblot (densitometry relative to H3). It is filed as cell-based, human. A general note: Immunoblotting shows a protein as a band on a membrane.
In data set [3] the test system is K562 cells. The experiment in a line: Chromosome breakage analysis after γ-irradiation. It is filed as cell-based, human. To be noted: for Chromosome breaks and fragments versus control cells: 24 hr after 0.75 Gy γ-irradiation. On the procedure: K562 and HepG2 cultures were exposed in duplicate wells to indicated doses of γ-irradiation and incubated at 37° C. for indicated times in 5% CO2. Cells were harvested and processed for chromosomal analysis following standard methods (S1). 50-75 Wright-stained metaphases for each condition were scored for chromosomal aberrations.

For data set [4], the system named is K562 cells. The experiment in a line: Single cell gel electrophoresis (comet) assay. The format is cell-based, human.
The next data set concerns 3′UTR of H2AX mRNA. The experiment in a line: Luciferase reporter assay with H2AX 3′UTR / MRE reporters in HepG2 cells. It is filed as cell-based. As to the method:
HepG2 cells (2.5×10^5/well) were reverse transfected in triplicate with 30 nM miR-24 mimic, miRNA-328 mimic or control miRNA mimic. Two days later, cells were transfected using Lipofectamine 2000 (Invitrogen) with psiCHECK2 (Promega) vector (0.5 μg/well) containing the 3′UTR of H2AX cloned in the multiple cloning site of Renilla luciferase or control. After 24 hr luciferase activities were measured using the Dual Luciferase Assay System (Promega) and TopCount NXT microplate reader (Perkin Elmer) per manufacturer's instructions. Data were normalized to Firefly luciferase. To test whether H2AX mRNA is directly regulated by miR-24, we cloned the two predicted MREs in the H2AX 3′ UTR into the multiple cloning site of psiCHECK2 and also the mutant versions that disrupted base-pairing between the binding sites and miR-24. HepG2 cells were cotransfected with these plasmids and miR-24 or control mimics for 48 h using Lipofectamine 2000, before we performed the luciferase assays as described above.
A general note: A reporter such as luciferase makes a cellular process visible.

The subject of the next data set is UBC mRNA. Description: UBC mRNA level by qRT-PCR. It is filed as cell-based. To be noted: miR-24 over-expression in HepG2 cells. On the procedure:
as §2, §3

The next data set concerns CHEK1. The experiment in a line: CHEK1 protein level by immunoblot. To be noted: K562 cells. It is filed as cell-based, human. As to the method: K562 cells (1×10^6) were transfected with miR-24 mimics or control miRNA mimics (cel-miR-67) as above and 48 h later whole cell lysates were prepared using RIPA buffer (150 mM NaCl, 1% NP-40, 0.5% sodium deoxycholate, 0.1% SDS, 50 mM Tris, pH 8.0). Protein samples were quantified using Bradford reagent (BioRad) and resolved on 10% SDS-PAGE gels and analyzed by immunoblot probed with antibodies to H2AX (Upstate Biotech), CHEK1 (cell Signaling), histone H3 (Cell Signaling), tubulin (Sigma). All antibodies were used at a dilution of 1:1000.

The subject of data set [5] is HepG2 cells. The experiment in a line: Cell cycle analysis by propidium iodide flow cytometry. It is filed as cell-based. To be noted: HepG2 cells transfected 48 hr.
Data set [6] concerns HepG2 cells. The experiment in a line: Cell viability assay after genotoxic drug, HepG2. The format is cell-based. On the procedure: as §3, §4

`C[S+](C)[O-]` [DMSO]: in the data set on H2AX mRNA (HL60 cell differentiation), the “Decline of H2AX mRNA, primers specific for the longer transcript” value (from here on “Decline of H2AX mRNA, primers specific”) is recorded as “two-fold”. Besides, the “miR-24 level during differentiation” value with miR-24 (HL60 cells) is reported as “increases”.

Turning to hemin, in the data set on H2AX mRNA (K562 cell differentiation), the “Decline of H2AX mRNA, primers specific” value is “two-fold”. The “miR-24 level during differentiation” value in the data set with miR-24 (K562 cells) is “increases”.

Take `CCCCCCCCCCCCCC(=O)O[C@@H]1[C@@H](C)[C@@]2(O)[C@@H](C=C(CO)C[C@]3(O)C(=O)C(C)=C[C@@H]23)[C@@H]2C(C)(C)[C@]12OC(C)=O` [TPA, 12-O-tetradecanoylphorbol-13-acetate]: the Thymidine incorporation entry in the data set with K562 cells [1] is reported as “no thymidine incorporation”. Moreover, the “Sensitivity to DNA damage (viability after bleomycin)” value with K562 cells [2] is “significantly hypersensitive”. In addition, the “Drop of H2AX protein level” value in the data set on H2AX (HL60 cells after TPA induction) is recorded as 4 fold; in the data set with H2AX (K562 cells after TPA induction), 14 fold. Moreover, the “Decline of H2AX mRNA, primers specific” value in the data set on H2AX mRNA (HL60 cell differentiation) and with H2AX mRNA (K562 cell differentiation) was “two-fold” each time. For the same compound, the “miR-24 level during differentiation” value in the data set with miR-24 (HL60 cells) and in the data set with miR-24 (K562 cells) was “increases” each time. The “Chromosome breaks and fragments versus control cells” value with K562 cells [3] is reported as “significantly more sensitive”.

Consider “miR-24: microRNA miR-24 (SEQ ID NO: 1), transfected as synthetic mimic (Dharmacon) for over-expression (UGGCUCAGUUCAGCAGGAACAG; synthetic mimic, further chemistry not given here)”, for which the “Comet tails compared to control miRNA-transfected cells” value in the data set on K562 cells [4] (K562 cells after bleomycin treatment) is recorded as 5 fold. Besides, the “Comet moment after bleomycin with H2AX rescue” value with K562 cells [4] (K562 cells co-transfected with H2AX expression plasmid lacking 3′UTR, versus miRNA control and vector) is reported as “no significant increase”. The Basal comet moment entry in the data set on K562 cells [4] (K562 cells, no bleomycin) is reported as “not significantly changed”. The “Repair of bleomycin-induced DNA damage by comet assay” value in the data set with K562 cells [4] (TPA-treated K562 cells) is “significantly enhances repair”. In the data set with 3′UTR of H2AX mRNA (H2AX 3′UTR-containing reporter), the “Reduction of luciferase activity” value is “more than 2 fold”. Moreover, the “Effect on luciferase activity, mutated MRE reporters” value with 3′UTR of H2AX mRNA (MREs with mutated seed region) is recorded as “little effect”. In addition, the “Luciferase activity from control reporters” value with 3′UTR of H2AX mRNA (control reporter (vector)) was “unchanged”. Further, the “Reduction of luciferase activity, wild-type miR-24 MRE reporters” value with 3′UTR of H2AX mRNA (either wild-type MRE inserted) was “approximately four-fold”. Further, in the data set with K562 cells [2], the “Effect on survival with miR-24-insensitive H2AX over-expression” value is given as “fully rescued” and the “Sensitivity to DNA damage (viability after bleomycin)” value was “significantly hypersensitive”. The “Hypersensitivity to bleomycin with miR-24-insensitive CHEK1 expression” value with K562 cells [2] (CHEK1 cDNA lacking 3′UTR) is listed as “not rescued”. Besides, the H2AX protein result with H2AX (K562 cells transfected with mimic) is reported as “reduces H2AX comparably to TPA differentiation”. Moreover, in the data set with H2AX (miRNA over-expression in HepG2 cells, 48 hr), the “Reduction of H2AX protein expression” value is recorded as −8 fold. For the same compound, the “Decrease of H2AX mRNA” value in the data set on H2AX mRNA (miRNA over-expression in HepG2 cells, 48 hr, normalized to GAPDH) was determined as 2 fold. In addition, the “Effect on UBC mRNA levels” value in the data set with UBC mRNA is “does not alter”. Besides, the CHEK1 protein entry in the data set with CHEK1 was “decrease”. For the same compound, the G1 compartment result in the data set on HepG2 cells [5] is listed as “increases”. The “Chromosomal instability versus control cells” value in the data set on K562 cells [3] (0.38 Gy) is “more chromosomal instability”. For the same compound, in the data set with K562 cells [3] (24 hr after 0.38 Gy), the “Chromosome breaks versus control cells” value is given as “not significantly more breaks”. Also, in the data set with K562 cells [3], the “Chromosome breaks and fragments versus control cells” value is reported as “twice as many”. The “Effect on survival with miR-24-insensitive H2AX over-expression” value in the data set on HepG2 cells [6] (HepG2 cells) is reported as “fully rescued”. In the data set on HepG2 cells [6] (mimic-transfected HepG2 cells), the Cytotoxicity of bleomycin result is “significantly enhanced cytotoxicity” and the Cytotoxicity of cisplatin result is reported as “significantly enhanced cytotoxicity”.

Source of the values: patent publication US9347089B2, “Therapeutic and diagnostic strategies” (Children's Medical Center Corporation, priority 2008, dated 2016).
